# Experimental data: PMC7052086, “Functional characterization of NADPH-cytochrome P450 reductase and cinnamic acid 4-hydroxylase encoding genes from Scoparia dulcis L” (Botanical Studies, 2020)
# Biological target: T1, SdC4H (CYP73A111) with SdCPR (Scoparia dulcis, UniProt U5N2L3)
# T1 construct: gene C4H; full-length ORF in pET28b, His-tagged, E. coli BL21(DE3), crude soluble fraction; redox partner recombinant SdCPR (GenBank KF306080) added; with NADPH--cytochrome P450 reductase
# Experiment: HPLC detection of 4-hydroxylated product
# Assay type: biochemical
# Conditions: 1 mM trans-cinnamic acid, 2 mM NADPH, recombinant SdCPR, 50 mM phosphate pH 7.4, 30 °C, 30 min
# T1 sequence (U5N2L3 entry or part of it): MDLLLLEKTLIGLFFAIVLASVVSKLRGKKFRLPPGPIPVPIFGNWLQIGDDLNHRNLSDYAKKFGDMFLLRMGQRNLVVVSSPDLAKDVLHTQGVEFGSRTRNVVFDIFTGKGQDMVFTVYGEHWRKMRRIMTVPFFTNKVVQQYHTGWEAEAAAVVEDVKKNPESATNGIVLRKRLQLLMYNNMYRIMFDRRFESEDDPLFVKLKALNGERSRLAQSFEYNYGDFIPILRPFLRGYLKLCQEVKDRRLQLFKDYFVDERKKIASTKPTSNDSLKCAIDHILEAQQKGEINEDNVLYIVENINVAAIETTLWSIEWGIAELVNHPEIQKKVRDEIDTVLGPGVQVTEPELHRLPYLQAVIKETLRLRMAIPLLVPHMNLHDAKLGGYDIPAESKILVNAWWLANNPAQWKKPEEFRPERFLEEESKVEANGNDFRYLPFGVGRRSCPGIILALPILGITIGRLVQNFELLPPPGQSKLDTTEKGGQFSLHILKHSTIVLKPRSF
# T1 sequence (U5N352 entry or part of it, further chain): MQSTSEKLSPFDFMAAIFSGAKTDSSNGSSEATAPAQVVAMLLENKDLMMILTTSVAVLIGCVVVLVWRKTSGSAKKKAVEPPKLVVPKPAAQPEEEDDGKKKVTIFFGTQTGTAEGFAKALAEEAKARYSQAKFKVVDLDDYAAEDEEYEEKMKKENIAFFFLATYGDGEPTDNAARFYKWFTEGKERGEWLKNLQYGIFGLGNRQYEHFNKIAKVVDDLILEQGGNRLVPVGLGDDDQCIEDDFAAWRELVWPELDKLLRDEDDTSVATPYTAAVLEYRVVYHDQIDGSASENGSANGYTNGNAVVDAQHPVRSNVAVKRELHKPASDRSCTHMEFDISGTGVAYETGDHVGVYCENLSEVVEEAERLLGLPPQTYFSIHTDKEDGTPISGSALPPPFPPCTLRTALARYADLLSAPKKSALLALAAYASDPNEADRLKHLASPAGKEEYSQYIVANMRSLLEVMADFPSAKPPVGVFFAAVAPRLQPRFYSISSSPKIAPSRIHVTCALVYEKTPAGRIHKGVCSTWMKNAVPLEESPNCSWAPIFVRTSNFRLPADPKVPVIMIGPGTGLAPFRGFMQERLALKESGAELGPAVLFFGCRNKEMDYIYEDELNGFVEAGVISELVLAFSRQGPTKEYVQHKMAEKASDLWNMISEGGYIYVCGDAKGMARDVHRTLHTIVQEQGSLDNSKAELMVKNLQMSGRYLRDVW
smiles,measurement,value
O=C(O)/C=C/c1ccccc1 [trans-cinnamic acid],HPLC detection of 4-hydroxylated product,the C4H activity (trans-cinnamic acid was 4-hydroxylated) of recombinant SdC4H was detected by HPLC
